# Results: ChEMBL document CHEMBL1201862, “PubChem BioAssay data set” (2004)
#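 Exposure lasted 48 hours, with cells grown in 96-well plates and compounds tested at five concentrations. GI50: concentration for 50% inhibition of growth.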 The source made the active and inactive calls. No stated cut-off is given here; in the data, active = GI50 up to about 1.1 µM and inactive = higher.
# Experiments:
# Experiment in all cases: NCI anticancer screen, dose series, 48 h
# [1] = test system: HCC 2998
# [2] = test system: HOP-62
# [3] = test system: OVCAR-5
# [4] = test system: NCI-H226
# [5] = test system: ACHN
# [6] = test system: UACC-257
# [7] = test system: DMS-273
# [8] = test system: CAKI-1
# [9] = test system: SN12C
# [10] = test system: M19-MEL
# [11] = test system: A549
# [12] = test system: OVCAR-3
# [13] = test system: LOX IMVI
# [14] = test system: RPMI-8226
# [15] = test system: SNB-19
# [16] = test system: M14
# [17] = test system: MOLT-4
# [18] = test system: Malme-3M
# [19] = test system: HCT-15
# [20] = test system: SK-MEL-2
# [21] = test system: SK-OV-3
# [22] = test system: SNB-78
# [23] = test system: SF-539
# [24] = test system: SF-295
# [25] = test system: 786-0
# [26] = test system: SK-MEL-5
# [27] = test system: DLD-1
# [28] = test system: SW-620
# [29] = test system: HOP-92
# [30] = test system: CCRF-CEM
# [31] = test system: UACC-62
# [32] = test system: RXF 631
# [33] = test system: UO-31
# [34] = test system: K562
# [35] = test system: OVCAR-4
# [36] = test system: IGROV-1
# [37] = test system: LXFL 529
# [38] = test system: HT-29
# [39] = test system: COLO 205
# [40] = test system: SF-268
# [41] = test system: NCI-H522
# [42] = test system: DMS-114
# [43] = test system: KM12
# [44] = test system: TK-10
# [45] = test system: SK-MEL-28
# [46] = test system: HL-60
# [47] = test system: EKVX
# [48] = test system: NCI-H460
# [49] = test system: SNB-75
# [50] = test system: OVCAR-8
# [51] = test system: RXF 393
# [52] = test system: U-251
# [53] = test system: HOP-18
# [54] = test system: SR
# [55] = test system: NCI-H23
# [56] = test system: XF498
# [57] = test system: A498
# [58] = test system: KM-20L2
# [59] = test system: HCT-116
smiles,measurement,setting,value
COc1c(C)cc(O)cc1C=O,GI50,[1],> 100 µM (inactive)
same,GI50,[2],> 100 µM (inactive)
same,GI50,[3],> 100 µM (inactive)
same,GI50,[4],> 100 µM (inactive)
same,GI50,[5],> 100 µM (inactive)
same,GI50,[6],> 100 µM (inactive)
same,GI50,[7],> 100 µM (inactive)
same,GI50,[8],> 100 µM (inactive)
same,GI50,[9],> 100 µM (inactive)
same,GI50,[10],> 100 µM (inactive)
same,GI50,[11],> 100 µM (inactive)
same,GI50,[12],> 100 µM (inactive)
same,GI50,[13],> 100 µM (inactive)
same,GI50,[14],> 100 µM (inactive)
same,GI50,[15],> 100 µM (inactive)
same,GI50,[16],> 100 µM (inactive)
same,GI50,[17],> 100 µM (inactive)
same,GI50,[18],> 100 µM (inactive)
same,GI50,[19],> 100 µM
same,GI50,[20],> 100 µM (inactive)
same,GI50,[21],> 100 µM (inactive)
same,GI50,[22],> 100 µM (inactive)
same,GI50,[23],> 100 µM (inactive)
same,GI50,[24],> 100 µM (inactive)
same,GI50,[25],> 100 µM (inactive)
same,GI50,[26],> 100 µM (inactive)
same,GI50,[27],> 100 µM (inactive)
same,GI50,[28],> 100 µM (inactive)
same,GI50,[29],> 100 µM (inactive)
same,GI50,[30],> 100 µM (inactive)
same,GI50,[31],> 100 µM (inactive)
same,GI50,[32],> 100 µM (inactive)
same,GI50,[33],> 100 µM (inactive)
same,GI50,[34],> 100 µM (inactive)
same,GI50,[35],> 100 µM (inactive)
same,GI50,[36],> 100 µM (inactive)
same,GI50,[37],> 100 µM (inactive)
same,GI50,[38],> 100 µM (inactive)
same,GI50,[39],> 100 µM (inactive)
same,GI50,[40],> 100 µM (inactive)
same,GI50,[41],> 100 µM (inactive)
same,GI50,[42],> 100 µM (inactive)
same,GI50,[43],93.3 µM (inactive)
same,GI50,[44],> 100 µM (inactive)
same,GI50,[45],> 100 µM (inactive)
same,GI50,[46],> 100 µM (inactive)
same,GI50,[47],> 100 µM (inactive)
same,GI50,[48],> 100 µM (inactive)
same,GI50,[49],> 100 µM (inactive)
same,GI50,[50],> 100 µM (inactive)
same,GI50,[51],> 100 µM (inactive)
same,GI50,[52],> 100 µM (inactive)
O=Cc1ccccc1COC(=O)c1cc(C(=O)OCc2ccccc2C=O)c(C(=O)OCc2ccccc2C=O)cc1C(=O)OCc1ccccc1C=O,GI50,[1],> 100 µM (inactive)
same,GI50,[53],> 100 µM (inactive)
same,GI50,[3],> 100 µM (inactive)
same,GI50,[4],> 100 µM (inactive)
same,GI50,[5],> 100 µM (inactive)
same,GI50,[6],> 100 µM (inactive)
same,GI50,[7],30.3 µM (inactive)
same,GI50,[8],> 100 µM (inactive)
same,GI50,[9],> 100 µM (inactive)
same,GI50,[10],> 100 µM (inactive)
same,GI50,[11],> 100 µM (inactive)
same,GI50,[12],> 100 µM (inactive)
same,GI50,[13],42 µM (inactive)
same,GI50,[14],43.7 µM (inactive)
same,GI50,[15],> 100 µM (inactive)
same,GI50,[54],29.5 µM (inactive)
same,GI50,[16],> 100 µM (inactive)
same,GI50,[17],30.3 µM (inactive)
same,GI50,[18],> 100 µM (inactive)
same,GI50,[55],> 100 µM (inactive)
same,GI50,[19],> 100 µM
same,GI50,[56],> 100 µM (inactive)
same,GI50,[20],82.2 µM (inactive)
same,GI50,[21],> 100 µM (inactive)
same,GI50,[22],40.7 µM (inactive)
same,GI50,[23],> 100 µM (inactive)
same,GI50,[24],64.6 µM (inactive)
same,GI50,[25],23.6 µM (inactive)
same,GI50,[26],> 100 µM (inactive)
same,GI50,[27],> 100 µM (inactive)
same,GI50,[28],> 100 µM (inactive)
same,GI50,[29],31.6 µM (inactive)
same,GI50,[30],43.4 µM (inactive)
same,GI50,[31],> 100 µM (inactive)
same,GI50,[57],> 100 µM (inactive)
same,GI50,[33],> 100 µM (inactive)
same,GI50,[34],39.8 µM (inactive)
same,GI50,[35],> 100 µM (inactive)
same,GI50,[36],> 100 µM (inactive)
same,GI50,[37],46.3 µM (inactive)
same,GI50,[38],> 100 µM (inactive)
same,GI50,[58],> 100 µM (inactive)
same,GI50,[39],> 100 µM (inactive)
same,GI50,[40],69.2 µM (inactive)
same,GI50,[41],> 100 µM (inactive)
same,GI50,[42],49.4 µM (inactive)
same,GI50,[43],> 100 µM (inactive)
same,GI50,[44],61.9 µM (inactive)
same,GI50,[45],> 100 µM (inactive)
same,GI50,[46],38.2 µM (inactive)
same,GI50,[47],> 100 µM (inactive)
same,GI50,[48],> 100 µM (inactive)
same,GI50,[49],21.5 µM (inactive)
same,GI50,[50],80 µM (inactive)
same,GI50,[51],31.3 µM (inactive)
same,GI50,[52],47.1 µM (inactive)
same,GI50,[59],31.9 µM (inactive)
CC(=O)c1cccc(NC(=O)C(=O)Nn2c(N)nnc2N)c1,GI50,[1],> 100 µM (inactive)
same,GI50,[53],> 100 µM (inactive)
same,GI50,[2],> 100 µM (inactive)
same,GI50,[3],> 100 µM (inactive)
same,GI50,[4],> 100 µM (inactive)
same,GI50,[5],> 100 µM (inactive)
same,GI50,[6],> 100 µM (inactive)
same,GI50,[7],> 100 µM (inactive)
same,GI50,[8],> 100 µM (inactive)
same,GI50,[9],> 100 µM (inactive)
same,GI50,[10],> 100 µM (inactive)
same,GI50,[11],> 100 µM (inactive)
same,GI50,[13],> 100 µM (inactive)
same,GI50,[14],> 100 µM (inactive)
same,GI50,[15],> 100 µM (inactive)
same,GI50,[54],> 100 µM (inactive)
same,GI50,[16],> 100 µM (inactive)
same,GI50,[17],> 100 µM (inactive)
same,GI50,[18],> 100 µM (inactive)
same,GI50,[55],> 100 µM (inactive)
same,GI50,[19],> 100 µM
same,GI50,[56],> 100 µM (inactive)
same,GI50,[20],> 100 µM (inactive)
same,GI50,[21],> 100 µM (inactive)
same,GI50,[22],> 100 µM (inactive)
same,GI50,[23],> 100 µM (inactive)
same,GI50,[24],> 100 µM (inactive)
same,GI50,[25],> 100 µM (inactive)
same,GI50,[26],> 100 µM (inactive)
same,GI50,[27],> 100 µM (inactive)
same,GI50,[28],> 100 µM (inactive)
same,GI50,[29],> 100 µM (inactive)
same,GI50,[30],> 100 µM (inactive)
same,GI50,[31],> 100 µM (inactive)
same,GI50,[57],> 100 µM (inactive)
same,GI50,[33],> 100 µM (inactive)
same,GI50,[34],> 100 µM (inactive)
same,GI50,[35],> 100 µM (inactive)
same,GI50,[36],> 100 µM (inactive)
same,GI50,[37],> 100 µM (inactive)
same,GI50,[38],> 100 µM (inactive)
same,GI50,[58],> 100 µM (inactive)
same,GI50,[39],> 100 µM (inactive)
same,GI50,[40],> 100 µM (inactive)
same,GI50,[41],> 100 µM (inactive)
same,GI50,[42],> 100 µM (inactive)
same,GI50,[43],> 100 µM (inactive)
same,GI50,[44],> 100 µM (inactive)
same,GI50,[45],> 100 µM (inactive)
same,GI50,[46],> 100 µM (inactive)
same,GI50,[47],> 100 µM (inactive)
same,GI50,[48],> 100 µM (inactive)
same,GI50,[49],> 100 µM (inactive)
same,GI50,[50],> 100 µM (inactive)
same,GI50,[51],> 100 µM (inactive)
same,GI50,[52],> 100 µM (inactive)
same,GI50,[59],> 100 µM (inactive)
